Measurements taken from patent US11945822B2, “Pyrazolo-triazine and/or pyrazolo-pxrimidine derivatives as selective inhibitor of cyclin dependent kinase” (QURIENT CO., LTD., priority 2018, dated 2024).

The molecules below were run against T1, CDK1/Cyclin B (Homo sapiens, UniProt P06493) (assay: Enzymatic assay for CDK1 (FRET based LANCE Ultra kinase assay)). Details: read-out: CDK1 enzymatic activity (IC50 range).
T1 construct: purchased Invitrogen PR4768C
Type: biochemical
How it was run: (§1)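 LANCE Ultra TR-FRET: ULight-MBP peptide (68 nM) with ATP at Km, […], 60 min at 23° C. EDTA plus Eu-anti-phospho-MBP added, another 60 min, then 665/615 nm emission read. Compounds tested as 8-dose 4-fold DMSO dilutions.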

T1 sequence (P06493 whole entry): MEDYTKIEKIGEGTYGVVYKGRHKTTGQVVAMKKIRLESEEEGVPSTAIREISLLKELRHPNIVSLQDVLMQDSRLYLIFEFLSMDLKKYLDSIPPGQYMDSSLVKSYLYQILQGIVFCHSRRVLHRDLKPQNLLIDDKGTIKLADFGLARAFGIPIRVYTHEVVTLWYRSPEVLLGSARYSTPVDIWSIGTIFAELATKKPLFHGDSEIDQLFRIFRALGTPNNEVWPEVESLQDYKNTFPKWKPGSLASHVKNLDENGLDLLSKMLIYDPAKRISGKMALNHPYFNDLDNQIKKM
T1 sequence (P14635 whole entry partner): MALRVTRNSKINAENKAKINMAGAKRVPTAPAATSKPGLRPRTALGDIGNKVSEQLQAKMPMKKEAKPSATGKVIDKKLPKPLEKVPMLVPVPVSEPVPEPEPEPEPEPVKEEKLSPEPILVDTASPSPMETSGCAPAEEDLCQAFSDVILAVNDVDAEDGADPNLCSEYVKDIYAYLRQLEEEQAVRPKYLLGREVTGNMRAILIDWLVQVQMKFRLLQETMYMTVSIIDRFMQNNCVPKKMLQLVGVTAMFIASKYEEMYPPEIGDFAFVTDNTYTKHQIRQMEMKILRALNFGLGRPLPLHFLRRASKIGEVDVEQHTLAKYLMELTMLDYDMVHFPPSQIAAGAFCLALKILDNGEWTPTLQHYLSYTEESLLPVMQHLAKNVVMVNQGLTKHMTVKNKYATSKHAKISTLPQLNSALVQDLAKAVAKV

| IC50 [nM] | SMILES |
| --- | --- |
| > 1000 | CC(C)c1cnn2c(NCc3cccc(Oc4ccc(F)c(NC(=O)CCCN(C)C)c4)c3)nc(N3CCC(N)CC3)nc12 [Compound 93] |
| > 1000 | CC(C)c1cnn2c(NCc3c(Cl)cccc3C(C)(C)O)nc(N3CCC(N)CC3)nc12 [Compound 239] |
| > 1000 | CC(C)c1cnn2c(NCc3ccccc3-n3cc(N4CCOCC4)cn3)nc(N3CCC(N)CC3)nc12 [Compound 156] |
| > 1000 | CC(C)c1cnn2c(NCc3ccccc3-n3ccc(C(C)(C)O)n3)nc(NCC3(O)CCNCC3)nc12 [Compound 229] |
| > 1000 | CC(C)c1cnn2c(NCc3ccccc3-n3ccc(C(C)(C)O)n3)nc(N3CCC(O)(CN)CC3)nc12 [Compound 228] |
| > 1000 | CC(C)c1cnn2c(NCc3c(Cl)cccc3-n3ccc(C(=O)NC4CCOCC4)n3)nc(N3CCC(N)CC3)nc12 [Compound 201] |

The molecules below were run against T2, CDK2/Cyclin A (Homo sapiens, UniProt P24941) (assay: Enzymatic assay for CDK2 (FRET based LANCE Ultra kinase assay)). Details: read-out: CDK2 enzymatic activity (IC50 range).
T2 construct: purchased Invitrogen PV6290
Type: biochemical
How it was run: as §1

| IC50 [nM] | SMILES |
| --- | --- |
| 100 to 1000 | CC(C)c1cnn2c(NCc3cccc(Oc4ccc(F)c(NC(=O)CCCN(C)C)c4)c3)nc(N3CCC(N)CC3)nc12 [Compound 93] |
| > 1000 | CC(C)c1cnn2c(NCc3c(Cl)cccc3C(C)(C)O)nc(N3CCC(N)CC3)nc12 [Compound 239] |
| 100 to 1000 | CC(C)c1cnn2c(NCc3ccccc3-n3cc(N4CCOCC4)cn3)nc(N3CCC(N)CC3)nc12 [Compound 156] |
| 100 to 1000 | CC(C)c1cnn2c(NCc3ccccc3-n3ccc(C(C)(C)O)n3)nc(NCC3(O)CCNCC3)nc12 [Compound 229] |
| > 1000 | CC(C)c1cnn2c(NCc3ccccc3-n3ccc(C(C)(C)O)n3)nc(N3CCC(O)(CN)CC3)nc12 [Compound 228] |
| > 1000 | CC(C)c1cnn2c(NCc3c(Cl)cccc3-n3ccc(C(=O)NC4CCOCC4)n3)nc(N3CCC(N)CC3)nc12 [Compound 201] |

The molecules below were run against T3, CDK5/p25 (Homo sapiens, UniProt Q00535) (assay: Enzymatic assay for CDK5 (FRET based LANCE Ultra kinase assay)). Details: read-out: CDK5 enzymatic activity (IC50 range).
T3 construct: purchased Invitrogen PR8543B
T3 sequence (Q00535 whole entry): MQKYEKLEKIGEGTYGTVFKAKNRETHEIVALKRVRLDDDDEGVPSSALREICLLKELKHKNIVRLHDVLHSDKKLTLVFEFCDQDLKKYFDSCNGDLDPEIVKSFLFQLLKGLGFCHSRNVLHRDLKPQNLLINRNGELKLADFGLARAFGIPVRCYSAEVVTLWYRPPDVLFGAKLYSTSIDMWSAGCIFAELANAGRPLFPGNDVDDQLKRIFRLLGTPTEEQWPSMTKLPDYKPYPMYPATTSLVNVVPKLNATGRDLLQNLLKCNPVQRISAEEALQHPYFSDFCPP
T3 sequence (Q15078 99-307 partner limits assumed): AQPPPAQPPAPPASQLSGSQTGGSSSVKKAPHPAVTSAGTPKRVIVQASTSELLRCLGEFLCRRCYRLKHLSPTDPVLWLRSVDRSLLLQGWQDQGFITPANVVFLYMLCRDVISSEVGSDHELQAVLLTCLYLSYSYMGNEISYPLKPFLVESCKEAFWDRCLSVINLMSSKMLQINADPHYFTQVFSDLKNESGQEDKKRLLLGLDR
Type: biochemical
How it was run: as §1

| IC50 [nM] | SMILES |
| --- | --- |
| 100 to 1000 | CC(C)c1cnn2c(NCc3cccc(Oc4ccc(F)c(NC(=O)CCCN(C)C)c4)c3)nc(N3CCC(N)CC3)nc12 [Compound 93] |
| > 1000 | CC(C)c1cnn2c(NCc3c(Cl)cccc3C(C)(C)O)nc(N3CCC(N)CC3)nc12 [Compound 239] |
| 100 to 1000 | CC(C)c1cnn2c(NCc3ccccc3-n3cc(N4CCOCC4)cn3)nc(N3CCC(N)CC3)nc12 [Compound 156] |
| 100 to 1000 | CC(C)c1cnn2c(NCc3ccccc3-n3ccc(C(C)(C)O)n3)nc(NCC3(O)CCNCC3)nc12 [Compound 229] |
| 100 to 1000 | CC(C)c1cnn2c(NCc3ccccc3-n3ccc(C(C)(C)O)n3)nc(N3CCC(O)(CN)CC3)nc12 [Compound 228] |
| 100 to 1000 | CC(C)c1cnn2c(NCc3c(Cl)cccc3-n3ccc(C(=O)NC4CCOCC4)n3)nc(N3CCC(N)CC3)nc12 [Compound 201] |

These molecules were tested against T4, CDK7/Cyclin H/MNAT1 (Homo sapiens, UniProt P50613) (assay: Enzymatic assay for CDK7 (FRET based LANCE Ultra kinase assay)). Details: CDK7 over CDK1.
T4 construct: purchased Invitrogen PR6749B
T4 sequence (P50613 whole entry): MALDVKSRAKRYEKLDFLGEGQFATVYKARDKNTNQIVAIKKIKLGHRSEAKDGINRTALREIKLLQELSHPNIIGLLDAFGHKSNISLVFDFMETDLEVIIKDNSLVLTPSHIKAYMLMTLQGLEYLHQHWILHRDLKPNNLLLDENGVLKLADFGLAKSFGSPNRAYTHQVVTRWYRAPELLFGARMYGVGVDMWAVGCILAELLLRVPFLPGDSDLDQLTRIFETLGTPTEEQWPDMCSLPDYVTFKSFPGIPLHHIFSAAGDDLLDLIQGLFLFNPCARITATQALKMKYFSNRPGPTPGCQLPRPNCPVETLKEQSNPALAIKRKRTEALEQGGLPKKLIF
T4 sequence (P51946 whole entry partner): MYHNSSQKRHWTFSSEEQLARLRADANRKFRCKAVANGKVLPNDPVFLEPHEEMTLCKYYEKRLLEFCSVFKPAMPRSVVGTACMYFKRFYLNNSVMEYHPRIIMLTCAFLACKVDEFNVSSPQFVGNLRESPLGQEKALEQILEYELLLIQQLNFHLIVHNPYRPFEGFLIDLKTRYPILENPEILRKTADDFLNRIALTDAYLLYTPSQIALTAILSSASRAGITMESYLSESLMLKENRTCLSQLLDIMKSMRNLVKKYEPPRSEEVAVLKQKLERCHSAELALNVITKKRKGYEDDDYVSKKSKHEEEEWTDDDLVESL
T4 sequence (P51948 whole entry partner): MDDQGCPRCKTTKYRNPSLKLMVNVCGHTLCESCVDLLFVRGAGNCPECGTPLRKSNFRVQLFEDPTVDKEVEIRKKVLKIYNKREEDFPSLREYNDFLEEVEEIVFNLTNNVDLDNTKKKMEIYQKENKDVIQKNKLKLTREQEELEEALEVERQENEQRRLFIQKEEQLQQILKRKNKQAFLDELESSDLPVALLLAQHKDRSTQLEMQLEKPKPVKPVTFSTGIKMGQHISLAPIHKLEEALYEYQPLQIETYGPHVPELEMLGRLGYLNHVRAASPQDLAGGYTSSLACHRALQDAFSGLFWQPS
Type: biochemical
How it was run: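 LANCE Ultra TR-FRET kinase assay using a ULight-labeled peptide substrate and a Eu-labeled anti-phospho antibody, with ATP at its Km. Purified CDK/cyclin complex was added to compound after brief centrifugation.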

| CDK1/CDK7: Selectivity of CDK7 inhibition over CDK1 inhibition | SMILES |
| --- | --- |
| A (A=greater than 200 fold) | CC(C)c1cnn2c(NCc3cccc(Oc4ccc(F)c(NC(=O)CCCN(C)C)c4)c3)nc(N3CCC(N)CC3)nc12 [Compound 93] |
| A (A=greater than 200 fold) | CC(C)c1cnn2c(NCc3c(Cl)cccc3C(C)(C)O)nc(N3CCC(N)CC3)nc12 [Compound 239] |
| A (A=greater than 200 fold) | CC(C)c1cnn2c(NCc3ccccc3-n3cc(N4CCOCC4)cn3)nc(N3CCC(N)CC3)nc12 [Compound 156] |
| A (A=greater than 200 fold) | CC(C)c1cnn2c(NCc3ccccc3-n3ccc(C(C)(C)O)n3)nc(N3CCC(O)(CN)CC3)nc12 [Compound 228] |
| A (A=greater than 200 fold) | CC(C)c1cnn2c(NCc3c(Cl)cccc3-n3ccc(C(=O)NC4CCOCC4)n3)nc(N3CCC(N)CC3)nc12 [Compound 201] |

| SMILES | CDK1/CDK7: Selectivity of CDK7 inhibition over CDK1 inhibition |
| --- | --- |
| CC(C)c1cnn2c(NCc3ccccc3-n3ccc(C(C)(C)O)n3)nc(NCC3(O)CCNCC3)nc12 [Compound 229] | B (B=less than 200 fold, but greater than 20 fold) |

Same assay, conditions: CDK7 over CDK2

| CDK2/CDK7: Selectivity of CDK7 inhibition over CDK2 inhibition | SMILES |
| --- | --- |
| A (A=greater than 200 fold) | CC(C)c1cnn2c(NCc3c(Cl)cccc3C(C)(C)O)nc(N3CCC(N)CC3)nc12 [Compound 239] |
| C (C=less than 20 fold) | CC(C)c1cnn2c(NCc3ccccc3-n3ccc(C(C)(C)O)n3)nc(NCC3(O)CCNCC3)nc12 [Compound 229] |
| A (A=greater than 200 fold) | CC(C)c1cnn2c(NCc3ccccc3-n3ccc(C(C)(C)O)n3)nc(N3CCC(O)(CN)CC3)nc12 [Compound 228] |
| A (A=greater than 200 fold) | CC(C)c1cnn2c(NCc3c(Cl)cccc3-n3ccc(C(=O)NC4CCOCC4)n3)nc(N3CCC(N)CC3)nc12 [Compound 201] |

| SMILES | CDK2/CDK7: Selectivity of CDK7 inhibition over CDK2 inhibition |
| --- | --- |
| CC(C)c1cnn2c(NCc3cccc(Oc4ccc(F)c(NC(=O)CCCN(C)C)c4)c3)nc(N3CCC(N)CC3)nc12 [Compound 93] | B (B=less than 200 fold, but greater than 20 fold) |
| CC(C)c1cnn2c(NCc3ccccc3-n3cc(N4CCOCC4)cn3)nc(N3CCC(N)CC3)nc12 [Compound 156] | B (B=less than 200 fold, but greater than 20 fold) |

Same assay, conditions: CDK7 over CDK5

| SMILES | CDK5/CDK7: Selectivity of CDK7 inhibition over CDK5 inhibition |
| --- | --- |
| CC(C)c1cnn2c(NCc3cccc(Oc4ccc(F)c(NC(=O)CCCN(C)C)c4)c3)nc(N3CCC(N)CC3)nc12 [Compound 93] | B (B=less than 200 fold, but greater than 20 fold) |
| CC(C)c1cnn2c(NCc3c(Cl)cccc3C(C)(C)O)nc(N3CCC(N)CC3)nc12 [Compound 239] | A (A=greater than 200 fold) |
| CC(C)c1cnn2c(NCc3ccccc3-n3cc(N4CCOCC4)cn3)nc(N3CCC(N)CC3)nc12 [Compound 156] | B (B=less than 200 fold, but greater than 20 fold) |
| CC(C)c1cnn2c(NCc3ccccc3-n3ccc(C(C)(C)O)n3)nc(NCC3(O)CCNCC3)nc12 [Compound 229] | C (C=less than 20 fold) |
| CC(C)c1cnn2c(NCc3ccccc3-n3ccc(C(C)(C)O)n3)nc(N3CCC(O)(CN)CC3)nc12 [Compound 228] | A (A=greater than 200 fold) |
| CC(C)c1cnn2c(NCc3c(Cl)cccc3-n3ccc(C(=O)NC4CCOCC4)n3)nc(N3CCC(N)CC3)nc12 [Compound 201] | B (B=less than 200 fold, but greater than 20 fold) |

Same assay, conditions: read-out: CDK7 enzymatic activity (IC50 range)

| IC50 [nM] | SMILES |
| --- | --- |
| < 100 | CC(C)c1cnn2c(NCc3cccc(Oc4ccc(F)c(NC(=O)CCCN(C)C)c4)c3)nc(N3CCC(N)CC3)nc12 [Compound 93] |
| < 100 | CC(C)c1cnn2c(NCc3c(Cl)cccc3C(C)(C)O)nc(N3CCC(N)CC3)nc12 [Compound 239] |
| < 100 | CC(C)c1cnn2c(NCc3ccccc3-n3cc(N4CCOCC4)cn3)nc(N3CCC(N)CC3)nc12 [Compound 156] |
| < 100 | CC(C)c1cnn2c(NCc3ccccc3-n3ccc(C(C)(C)O)n3)nc(NCC3(O)CCNCC3)nc12 [Compound 229] |
| < 100 | CC(C)c1cnn2c(NCc3ccccc3-n3ccc(C(C)(C)O)n3)nc(N3CCC(O)(CN)CC3)nc12 [Compound 228] |
| < 100 | CC(C)c1cnn2c(NCc3c(Cl)cccc3-n3ccc(C(=O)NC4CCOCC4)n3)nc(N3CCC(N)CC3)nc12 [Compound 201] |

What follows are molecules tested on HCT116 (assay: Cellular HCT116 viability assay (CellTiter-Glo, 72 hours)). Details: Homo sapiens, HCT-116.
Type: cell-based
How it was run: (§2)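 Steps: seed cells at per-line density; add compound, DMSO vehicle kept under 0.1% final; incubate 72 h, 37 °C, 5% CO2; lyse with CellTiter-Glo and read luminescence; run in duplicate.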

| IC50 [nM] | SMILES |
| --- | --- |
| 1000 to 10000 | CC(C)c1cnn2c(NCc3c(Cl)cccc3C(C)(C)O)nc(N3CCC(N)CC3)nc12 [Compound 239] |
| < 1000 | CC(C)c1cnn2c(NCc3ccccc3-n3cc(N4CCOCC4)cn3)nc(N3CCC(N)CC3)nc12 [Compound 156] |
| 1000 to 10000 | CC(C)c1cnn2c(NCc3ccccc3-n3ccc(C(C)(C)O)n3)nc(NCC3(O)CCNCC3)nc12 [Compound 229] |
| < 1000 | CC(C)c1cnn2c(NCc3ccccc3-n3ccc(C(C)(C)O)n3)nc(N3CCC(O)(CN)CC3)nc12 [Compound 228] |
| < 1000 | CC(C)c1cnn2c(NCc3c(Cl)cccc3-n3ccc(C(=O)NC4CCOCC4)n3)nc(N3CCC(N)CC3)nc12 [Compound 201] |

Each molecule was assayed on H460 (assay: Cellular H460 viability assay (CellTiter-Glo, 72 hours)). Details: Homo sapiens, NCI-H460.
Type: cell-based
How it was run: as §2

| IC50 [nM] | SMILES |
| --- | --- |
| 1000 to 10000 | CC(C)c1cnn2c(NCc3c(Cl)cccc3C(C)(C)O)nc(N3CCC(N)CC3)nc12 [Compound 239] |
| < 1000 | CC(C)c1cnn2c(NCc3ccccc3-n3cc(N4CCOCC4)cn3)nc(N3CCC(N)CC3)nc12 [Compound 156] |
| 1000 to 10000 | CC(C)c1cnn2c(NCc3ccccc3-n3ccc(C(C)(C)O)n3)nc(NCC3(O)CCNCC3)nc12 [Compound 229] |
| < 1000 | CC(C)c1cnn2c(NCc3ccccc3-n3ccc(C(C)(C)O)n3)nc(N3CCC(O)(CN)CC3)nc12 [Compound 228] |
| < 1000 | CC(C)c1cnn2c(NCc3c(Cl)cccc3-n3ccc(C(=O)NC4CCOCC4)n3)nc(N3CCC(N)CC3)nc12 [Compound 201] |

These molecules were tested on MV4-11 (assay: Cellular MV4-11 viability assay (CellTiter-Glo, 72 hours)). Details: Homo sapiens.
Type: cell-based
How it was run: as §2

| IC50 [nM] | SMILES |
| --- | --- |
| 1000 to 10000 | CC(C)c1cnn2c(NCc3c(Cl)cccc3C(C)(C)O)nc(N3CCC(N)CC3)nc12 [Compound 239] |
| < 1000 | CC(C)c1cnn2c(NCc3ccccc3-n3cc(N4CCOCC4)cn3)nc(N3CCC(N)CC3)nc12 [Compound 156] |
| 1000 to 10000 | CC(C)c1cnn2c(NCc3ccccc3-n3ccc(C(C)(C)O)n3)nc(NCC3(O)CCNCC3)nc12 [Compound 229] |
| < 1000 | CC(C)c1cnn2c(NCc3ccccc3-n3ccc(C(C)(C)O)n3)nc(N3CCC(O)(CN)CC3)nc12 [Compound 228] |
| < 1000 | CC(C)c1cnn2c(NCc3c(Cl)cccc3-n3ccc(C(=O)NC4CCOCC4)n3)nc(N3CCC(N)CC3)nc12 [Compound 201] |

These molecules were tested on MOLT-4 (assay: Cellular MOLT-4 viability assay (CellTiter-Glo, 72 hours)). Details: Homo sapiens, MOLT4 viability assay.
Type: cell-based
Procedure: All cell lines were routinely tested for mycoplasma.
The effect of the CDK7 inhibitor to inhibit the growth of target cancer cells was evaluated through the 72 hours time period of viability assay. Briefly, the candidate cell line ware plated in 96 well plate at the following density of cells respectively. […] DMSO solvent without compound served as a control and final DMSO concentration less than 0.1%. After 72 hours of incubation at 37° C., 5% CO2 incubator, cells were analyzed for the viability using the CellTiter-Glo Luminescent Cell Viability Assay (Promega, Cat #G7570). All viability assays were performed in duplicate and Luminescence was read using an Envision (Perkin Elmer, USA). Data was analyzed using XLfit software.

| IC50 [µM] | SMILES |
| --- | --- |
| 1 to 10 | CC(C)c1cnn2c(NCc3cccc(Oc4ccc(F)c(NC(=O)CCCN(C)C)c4)c3)nc(N3CCC(N)CC3)nc12 [Compound 93] |
